Results: US20080287480A1, “Therapeutic Combination Comprising a Nmda Receptors Blocker and a Narcotic Analgesic Substance” (Chiesi Farmaceutici S.p.A., priority 2005, published 2008)
Where two headings read alike, the source gives them in different places.

Legend:
Nerve injured rats = test: Mechanical allodynia (Electronic Von Frey) in chronic constriction injury model of neuropathic pain; type: in vivo, rat; conditions: MPE ± s.e.m.; 60 minutes after administration; CHF3381 30 mg/kg p.o., morphine 0.1 mg/kg s.c., alone or combined; vehicle 0.15±0.06
Source text: The animal model of chronic pain was a slight modification of the chronic constriction injury model of neuropathic pain originally described by Bennett G J et al in Pain 1988, 33, 87-107.
Nerve injured rats were placed on an elevated screen in a clear testing chamber and allowed to acclimate to the testing environment before any measurements were taken. The mechanical stimulus was delivered underneath to the plantar surface of the left hind paw of the rat by using the automated testing device Electronic Von Frey.
A steel rod was pushed against the hind paw with ascending force. The ramping of the force went from 0 to 50 g over a 20 s period. When the animal withdrew its hind paw, the mechanical stimulus was automatically withdrawn and the force at which the animal withdrew its paw was recorded. To quantify the mechanical sensitivity of the hind paws, withdrawal thresholds were taken from five consecutive trials with at least 10 s between each trial. The withdrawal threshold was taken to be the mean of the five trials (baseline value). […]
The values are expressed as Maximum Possible Effect (MPE)±s.e.m
The MPE value was calculated as follow: MPE=(PDR−IBR)/(CBR−IBR), where PDR is the post drug response of the ipsilateral paw, IBR is the ipsilateral paw baseline response and CBR is the contralateral paw baseline response. […]

mice = conditions: mean ± s.e.m.
Method: The animal model of inflammatory was a slight modification of the mouse paw formalin test originally described by Wheeler-Aceto H et al in Psychopharmacology 104, 35-44 (1991). Before formalin injection, mice were placed individually into clear plastic cylinders. After adaptation to the cage, 20 μl of 1% formalin was injected into the plantar surface of the left hind paw. Morphine was administered 30 min before formalin injection.
Mice, divided randomly into eight groups (13-16 animals/group), received treatment once daily for 4 days as follows: groups g1 and g2 received saline, 10 ml/kg i.p.; groups g3 and g4 received morphine 50 mg/kg i.p.; group g5 received morphine 50 mg/kg and CHF3381 30 mg/kg i.p.; group g6 received morphine 50 mg/kg and CHF3381 60 mg/kg i.p. On day 5, the mice received saline (g1 and g3), or morphine 6 mg/kg, i.p. (g2, g4, g5 and g6).
The amount of time, in seconds, the animals spent licking and flinching the injected paw from 10 to 40 min after formalin injection, was used as measurement of pain intensity.
The level of significance was set at P<0.05.

Neuropathic rats [1] = test: Cold allodynia (chilled metal floor) in chronic constriction injury model of neuropathic pain; type: in vivo, rat; conditions: mean ± s.e.m.; 60 minutes after treatment; 5±1° C. floor; CHF3381 30 mg/kg p.o., morphine 0.1 mg/kg s.c., alone or combined; vehicle 2.90±0.41 s
Method: (§1) The animal model of chronic pain was the same of Example 1.
Neuropathic rats were placed upon a metal floor chilled by an underlying water bath (5±1° C.) for a maximum of 20 s. The animals responded to the contact with the cold surface by lifting the paw on the ligated side off the floor. […] For each set of experiments, animals were pre-screened twice with 20 min interval between tests, in order to select animals displaying clear signs of allodynia, i.e. animals with a paw withdrawal latency on the ligated side of <10 s in both trials. […] The latency to paw withdrawal was then determined at 60 minutes after the administration of vehicle, CHF3381 (30 mg/kg p.o.) alone, morphine (0.1 mg/kg s.c.) alone or their combination.

Neuropathic rats [2] = test: Mechanical hyperalgesia (analgesymeter, Randall method) in chronic constriction injury model of neuropathic pain; type: in vivo, rat; conditions: mean ± s.e.m.; CHF3381 30 mg/kg p.o., morphine 0.1 mg/kg s.c., alone or combined; cut-off 500 g; vehicle 105.7±8.2 g
Method: as §1
Nerve injured rats developed mechanical hyperalgesia […]. Indeed, in these animals the mean paw threshold was decreased to about 110 g on the ligated side compared to the contralateral side (about 350 g; P<0.01).
Mechanical hyperalgesia was assessed in neuropathic rats by using an analgesymeter according to the method reported in Randall L O et al (Arch Int Pharmacodyn Ther 1957, 111, 409-419). Mechanical nociceptive thresholds were evaluated by measuring paw withdrawal thresholds to an increasing pressure stimulus applied to the distal portion of the plantar surface of the hind paw. The site of the stimulation was on area of the hind paw between the pads at the base of the third and forth digit. A cut-off was set at 500 g to prevent any tissue damage and the endpoint was taken as a complete paw withdrawal.

## CN1CC[C@]23c4c5ccc(O)c4O[C@H]2[C@@H](O)C=C[C@H]3[C@H]1C5 [morphine]
Nerve injured rats
  Maximum Possible Effect (MPE) on paw withdrawal threshold to mechanical stimulation: 0.21±0.07
mice; g2: saline i.p. days 1-4, morphine 6 mg/kg i.p. day 5, saline control g1 119.9±17.0
  mean licking time, 10 to 40 min after formalin injection: 65.9 ± 18.3 s
mice; g3: morphine 50 mg/kg i.p. days 1-4, saline i.p. day 5
  mean licking time, 10 to 40 min after formalin injection: 143.9 ± 19.2 s
mice; g4: morphine 50 mg/kg i.p. days 1-4, morphine 6 mg/kg i.p. day 5
  licking time, 10 to 40 min after formalin injection: 112.1 ± 13.4 s
Neuropathic rats [1]
  mean paw withdrawal latency (cold allodynia): 5.17 ± 0.86 s
Neuropathic rats [2]
  Paw withdrawal threshold (mechanical hyperalgesia): 105.8 ± 6.0 g
